Test results taken from patent US7141249B2, “Rapidly soluble drug composition” (Dainippon Sumitomo Pharma Co., Ltd., priority 1997, dated 2006).

How the values were obtained:
[1] = Plasma concentration after administration; format: in vivo; details: among the individuals to be administered
[2] = Water-solubility of AS-3201; format: physicochemical; details: in the range of low pH
From the text: The “micronized AS-3201” means powders of AS-3201 having a mean particle size of less than about 20 μm. The “mean particle size” means a particle size of being at 50% in cumulative particle distribution on weight or volume basis (ref., HA Lieberman et al., “Pharmaceutical Dosage Forms: Tablets”, Marcel Dekker, Inc., New York, 1990, vol. 2, 174–186; Kouichi IINOYA (edit.) “Handbook of Powder and Particle Measurement (in Japanese)”, The NIKKAN KOGYO SHINBUN LTD., 1981, 29–36). The “dissolution test” means a test in which the dissolution of AS-3201 from test pharmaceutical compositions in an amount corresponding to 20 mg of AS-3201 is evaluated according to Paddle method (50 rpm) specified in the Twelfth Edition of the Pharmacopoeia of Japan, using a 0.2 M phosphate buffer (pH 6.5, 900 ml) as a test solution, and assaying AS-3201 by spectrophotometry at 300 nm. The “pKa1” means an acid dissociation exponent of an acidic substance at 25° C. in an infinitely diluted solution thereof. When an acidic substance is a polybasic acid, it means an acid dissociation exponent at the first step of dissociation. The “water-solubility” means a maximum amount of a solute being dissolved in 100 ml of water. The term “about” is used with the intention of including values following said term.

aldose reductase = aldose reductase (Homo sapiens, UniProt P15121); details: disclosed in earlier patents (U.S. Pat. No. 5,258,382, JP-A-6-192222, JP-A-8-176105); cited from earlier work
Acidity (pKa) of AS-3201 = format: physicochemical

Question: Which “plasma concentration of AS-3201 (variation among individuals)” value [1] does the source give for `O=C1C[C@@]2(C(=O)N1)C(=O)N(Cc1ccc(Br)cc1F)C(=O)c1cccn12` [AS-3201, (R)-2-(4-bromo-2-fluorobenzyl)-1,2,3,4-tetrahydropyrrolo[1,2-a]pyrazine-4-spiro-3′-pyrrolidine-1,2′,3,5′-tetrone] here?
Answer: varies widely

Question: What about the water-solubility [2] of the same molecule?
Answer: several

Question: What about the “aldose reductase inhibitory activity” value (aldose reductase) of the same molecule?
Answer: potent

Question: And the pKa (Acidity (pKa) of AS-3201)?
Answer: 5.6 to 5.8
